Measurements as given in paper PMC8587151, “Dibenzofuran Derivatives Inspired from Cercosporamide as Dual Inhibitors of Pim and CLK1 Kinases” (Molecules, 2021).

The compounds below were run against T1, HsCDK5/p25 (Homo sapiens, UniProt Q00535) (assay: Kinase assay, luminescent ADP-Glo, 10 µM ATP). Settings: duplicate, read-out: Kinase Enzymatic IC50 CDK5/p25.
T1 construct: made in house; host or cells: Escherichia coli BL21 DE3 pLysS
T1 sequence (Q00535 whole entry): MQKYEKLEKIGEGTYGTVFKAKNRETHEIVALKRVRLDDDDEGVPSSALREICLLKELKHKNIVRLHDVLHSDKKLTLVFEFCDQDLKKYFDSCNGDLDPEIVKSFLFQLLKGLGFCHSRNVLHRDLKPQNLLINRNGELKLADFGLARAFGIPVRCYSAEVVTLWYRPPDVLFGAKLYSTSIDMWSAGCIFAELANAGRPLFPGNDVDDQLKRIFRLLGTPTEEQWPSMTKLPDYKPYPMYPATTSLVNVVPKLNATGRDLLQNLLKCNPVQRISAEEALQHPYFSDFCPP
T1 sequence (Q15078 99-307 partner limits assumed): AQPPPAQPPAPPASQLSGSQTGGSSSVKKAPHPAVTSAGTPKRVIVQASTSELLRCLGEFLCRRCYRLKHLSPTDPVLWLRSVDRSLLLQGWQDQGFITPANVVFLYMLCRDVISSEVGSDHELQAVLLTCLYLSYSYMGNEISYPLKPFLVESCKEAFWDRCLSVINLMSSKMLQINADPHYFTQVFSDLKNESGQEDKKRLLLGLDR
Format: biochemical
Experimental: (§1) The synthesized compounds were tested using a luminescence-based assay against a panel of nine kinases: Pim-1, Pim-2, CDK5/p25, CDK9/CyclinT, Haspin, CK1ε, and GSK3β (from human); DYRK1A (from Rattus norvegicus); and CLK1 (from Mus musculus).
(§2) Kinase enzymatic activities were assayed with 10 µM ATP in 384-well plates using the luminescent ADP-Glo^TM assay (Promega, Madison, WI, USA) according to the recommendations of the manufacturer (see [56] for details on this method). The transmitted signal was measured using the Envision (PerkinElmer, Waltham, MA, USA) microplate luminometer and expressed in relative light unit (RLU). In order to determine the half maximal inhibitory concentration (IC50), the assays were performed in duplicate in the absence or presence of increasing doses of the tested compounds. GraphPad Prism6 software (GraphPad Software, San Diego, CA, USA) was used to fit dose–response curves and to determine the IC50 values. Kinase activities are expressed in % of maximal activity, i.e., measured in the absence of inhibitor. Peptide substrates were obtained from Proteogenix (Schiltigheim, France).
(§3) For kinases expressed in bacteria, the Escherichia coli BL21 DE3 pLysS strain (Invitrogen, ThermoFisher Scientific, Waltham, MA, USA) was transformed with pGEX-2T-1 (Sigma-Aldrich, St. Louis, MO, USA) containing the coding region of the corresponding kinase. For kinases expressed in Sf9 insect cells, the coding region of the corresponding kinase was cloned in pFastBac^TM vector. Purification of the recombinant kinases was performed following the protocol “Bac-to-Bac® Baculovirus Expression System” provided by the manufacturer (Invitrogen, ThermoFisher Scientific, Waltham, MA, USA).
(§4) To validate the kinase assay, model inhibitors were used for each tested enzyme: Staurosporine from Streptomyces sp. (#S5921, purity ≥ 95%, Sigma-Aldrich) for HsCK1ε; Indirubin-30-oxime (#I0404, purity ≥ 98%, Sigma-Aldrich) for HsGSK-3β, HsPim-1 and 2, human cyclin-dependent kinases, RnDYRK1A and MmCLK1; CHR-6494 (#SML0648, purity ≥ 98%, Sigma-Aldrich) for Haspin.
For `NC(=O)c1c(O)cc(O)c2c1oc1c(N)cccc12` [Compound 16, 6-Amino-1,3-dihydroxydibenzo[b,d]furan-4-carboxamide], the IC50 was > 10 µM. With `NC(=O)c1c(O)cc(O)c2c1oc1cc(O)ccc12` [Compound 44, 1,3,7-Trihydroxydibenzo[b,d]furan-4-carboxamide] the IC50 was > 10 µM.

The compounds below were run against T2, HsCDK9/CyclinT (Homo sapiens, UniProt P50750) (assay: Kinase assay, luminescent ADP-Glo, 10 µM ATP). Settings: duplicate, read-out: Kinase Enzymatic IC50 CDK9/CyclinT.
T2 construct: made in house; host or cells: Sf9 insect cells (baculovirus, pFastBac)
T2 sequence (P50750 whole entry): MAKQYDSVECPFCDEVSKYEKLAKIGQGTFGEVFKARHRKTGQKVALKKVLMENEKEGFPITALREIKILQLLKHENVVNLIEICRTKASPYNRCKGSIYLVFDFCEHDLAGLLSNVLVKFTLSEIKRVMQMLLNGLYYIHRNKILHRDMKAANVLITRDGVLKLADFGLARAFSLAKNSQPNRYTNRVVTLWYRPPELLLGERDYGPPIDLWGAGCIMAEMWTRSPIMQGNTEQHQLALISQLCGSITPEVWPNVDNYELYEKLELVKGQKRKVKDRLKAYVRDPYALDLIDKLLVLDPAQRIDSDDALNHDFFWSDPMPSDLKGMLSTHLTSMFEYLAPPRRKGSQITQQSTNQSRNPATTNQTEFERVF
T2 sequence (O60563 whole entry partner): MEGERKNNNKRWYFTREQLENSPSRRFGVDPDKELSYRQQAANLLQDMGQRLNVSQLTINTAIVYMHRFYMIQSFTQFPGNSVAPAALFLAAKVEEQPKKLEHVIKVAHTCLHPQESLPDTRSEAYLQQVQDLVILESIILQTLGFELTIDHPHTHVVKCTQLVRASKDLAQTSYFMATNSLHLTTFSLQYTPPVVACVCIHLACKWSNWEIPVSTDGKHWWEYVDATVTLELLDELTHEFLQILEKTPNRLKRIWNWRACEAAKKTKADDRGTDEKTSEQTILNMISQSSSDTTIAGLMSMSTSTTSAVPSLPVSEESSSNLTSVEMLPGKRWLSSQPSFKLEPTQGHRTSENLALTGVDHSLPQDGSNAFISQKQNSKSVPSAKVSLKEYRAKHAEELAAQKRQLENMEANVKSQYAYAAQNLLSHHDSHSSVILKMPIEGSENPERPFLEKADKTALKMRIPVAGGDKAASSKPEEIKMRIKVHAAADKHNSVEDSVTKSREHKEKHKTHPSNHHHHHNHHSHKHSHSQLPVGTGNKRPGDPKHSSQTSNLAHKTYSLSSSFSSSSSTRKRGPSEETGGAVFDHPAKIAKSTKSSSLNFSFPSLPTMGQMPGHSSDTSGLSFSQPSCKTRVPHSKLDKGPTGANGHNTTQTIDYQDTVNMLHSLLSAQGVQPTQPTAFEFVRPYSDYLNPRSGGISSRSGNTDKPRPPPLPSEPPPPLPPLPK
Format: biochemical
Experimental: as §1, §2, §3, §4
`NC(=O)c1c(O)cc(O)c2c1oc1c(N)cccc12` [Compound 16, 6-Amino-1,3-dihydroxydibenzo[b,d]furan-4-carboxamide] was tested, and the IC50 was > 10 µM. `NC(=O)c1c(O)cc(O)c2c1oc1cc(O)ccc12` [Compound 44, 1,3,7-Trihydroxydibenzo[b,d]furan-4-carboxamide] was tested, and the IC50 was > 10 µM.

The compounds below were run against T3, HsPim-1 (Homo sapiens, UniProt P11309) (assay: Kinase assay, luminescent ADP-Glo, 10 µM ATP). Settings: Table 1; ADP-Glo, 10 µM ATP, duplicate; read-out: Kinase Enzymatic IC50 Pim-1.
T3 construct: made in house; host or cells: Escherichia coli BL21 DE3 pLysS
T3 sequence (P11309 whole entry): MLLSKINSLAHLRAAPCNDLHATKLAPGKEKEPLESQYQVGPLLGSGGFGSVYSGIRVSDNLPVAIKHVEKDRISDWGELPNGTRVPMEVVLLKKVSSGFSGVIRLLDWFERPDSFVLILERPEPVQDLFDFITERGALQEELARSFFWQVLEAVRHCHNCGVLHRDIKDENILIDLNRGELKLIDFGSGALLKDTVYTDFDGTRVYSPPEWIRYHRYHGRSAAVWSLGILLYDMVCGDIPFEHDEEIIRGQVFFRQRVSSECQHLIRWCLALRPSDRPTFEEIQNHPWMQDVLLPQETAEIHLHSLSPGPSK
Format: biochemical
Experimental: as §1, §2, §3, §4
For `NC(=O)c1c(O)cc(O)c2c1oc1c(N)cccc12` [Compound 16, 6-Amino-1,3-dihydroxydibenzo[b,d]furan-4-carboxamide], the IC50 was 0.13 µM. For `NC(=O)c1c(O)cc(O)c2c1oc1cc(O)ccc12` [Compound 44, 1,3,7-Trihydroxydibenzo[b,d]furan-4-carboxamide], the IC50 was 0.06 µM.

Same assay, conditions: Table 2; ADP-Glo, 10 µM ATP, mean of n ≥ 3; read-out: IC50 Pim-1
`NC(=O)c1c(O)cc(O)c2c1oc1c(N)cccc12` [Compound 16, 6-Amino-1,3-dihydroxydibenzo[b,d]furan-4-carboxamide] was tested, and the IC50 was 0.13 µM. `NC(=O)c1c(O)cc(O)c2c1oc1cc(O)ccc12` [Compound 44, 1,3,7-Trihydroxydibenzo[b,d]furan-4-carboxamide] was tested, and the IC50 was 0.06 µM.

Each compound was assayed against T4, HsPim-2 (Homo sapiens, UniProt Q9P1W9) (assay: Kinase assay, luminescent ADP-Glo, 10 µM ATP). Settings: mean of n ≥ 3, read-out: IC50 Pim-2.
T4 construct: made in house; host or cells: Escherichia coli BL21 DE3 pLysS
T4 sequence (Q9P1W9 whole entry): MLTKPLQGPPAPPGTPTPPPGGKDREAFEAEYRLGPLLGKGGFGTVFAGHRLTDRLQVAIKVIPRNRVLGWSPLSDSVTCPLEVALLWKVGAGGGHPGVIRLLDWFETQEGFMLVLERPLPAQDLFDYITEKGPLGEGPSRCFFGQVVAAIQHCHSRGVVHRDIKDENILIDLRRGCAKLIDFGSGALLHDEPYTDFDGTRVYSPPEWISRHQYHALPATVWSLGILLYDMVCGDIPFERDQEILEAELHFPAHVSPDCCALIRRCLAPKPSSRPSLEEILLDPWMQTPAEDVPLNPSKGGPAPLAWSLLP
Format: biochemical
Experimental: as §1, §2, §3, §4
For `NC(=O)c1c(O)cc(O)c2c1oc1c(N)cccc12` [Compound 16, 6-Amino-1,3-dihydroxydibenzo[b,d]furan-4-carboxamide], the IC50 was 0.085 µM. `NC(=O)c1c(O)cc(O)c2c1oc1cc(O)ccc12` [Compound 44, 1,3,7-Trihydroxydibenzo[b,d]furan-4-carboxamide] was tested, and the IC50 was 0.035 µM.

The compounds below were run against T5, MmCLK1 (Mus musculus, UniProt P22518) (assay: Kinase assay, luminescent ADP-Glo, 10 µM ATP). Settings: ADP-Glo, 10 µM ATP, duplicate; read-out: Kinase Enzymatic IC50 CLK1.
T5 construct: made in house; host or cells: Escherichia coli BL21 DE3 pLysS
T5 sequence (P22518 whole entry): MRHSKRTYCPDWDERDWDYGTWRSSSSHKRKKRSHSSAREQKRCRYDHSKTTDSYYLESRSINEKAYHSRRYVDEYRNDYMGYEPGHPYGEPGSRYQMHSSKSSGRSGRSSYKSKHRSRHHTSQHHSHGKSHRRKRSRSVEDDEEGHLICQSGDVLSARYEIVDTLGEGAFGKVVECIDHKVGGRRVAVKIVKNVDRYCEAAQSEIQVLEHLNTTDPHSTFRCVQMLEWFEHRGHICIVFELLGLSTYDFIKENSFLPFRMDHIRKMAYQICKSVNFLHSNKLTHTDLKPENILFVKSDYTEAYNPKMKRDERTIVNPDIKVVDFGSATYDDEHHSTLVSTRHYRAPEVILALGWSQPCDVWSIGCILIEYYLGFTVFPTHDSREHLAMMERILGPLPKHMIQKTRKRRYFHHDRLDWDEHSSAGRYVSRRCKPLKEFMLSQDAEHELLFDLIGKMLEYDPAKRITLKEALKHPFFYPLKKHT
Format: biochemical
Experimental: as §1, §2, §3, §4
With `NC(=O)c1c(O)cc(O)c2c1oc1c(N)cccc12` [Compound 16, 6-Amino-1,3-dihydroxydibenzo[b,d]furan-4-carboxamide] the IC50 was 0.45 µM. Compound `NC(=O)c1c(O)cc(O)c2c1oc1cc(O)ccc12` [Compound 44, 1,3,7-Trihydroxydibenzo[b,d]furan-4-carboxamide] has an IC50 of 0.026 µM.

What follows are compounds tested on MV4-11 cells (assay: MTT cell proliferation assay). Settings: Homo sapiens, MV4-11, 48 h, mean ± SEM.
Format: cell-based, human
Description: (§5) Various types of hematological malignancies were selected for in vitro testing: the human acute myeloid leukemia (AML) cell line MV4-11, and the human chronic myeloid leukemia (CML) cell lines KU812 and K562. Indeed, Pim kinases are overexpressed in a wide range of hematopoietic malignancies. Solid tumors were also included in the panel of tested cell lines: MCF-7 (human breast adenocarcinoma), HT-29 (human colon adenocarcinoma), and HeLa (human cervical cancer) cells. Cytotoxic effects were evaluated using an MTT assay, and living cells were also counted with the trypan blue dye exclusion method for MV4-11, KU812, and K562 cells.
(§6) MV4-11, K562, and KU812 cell lines were obtained from the Deutshe Sammlung von Mikroorganismens und Zellkulturen (DSMZ) and maintained according to the supplier’s recommendations. All cell lines were cultured in RPMI, with 10% fetal bovine serum, 1% glutamine, and 1% penicillin/ streptomycin at 37 °C and 5% CO2.
(§7) MV4-11, K562, and KU812 cells’ viability was studied using a MTT cell proliferation assay.
(§8) MV4-11, K562, and KU812 cells were incubated with 10 μL of MTT working solution (5 g/L of methylthiazolyldiphenyl-tetrazolium bromide from Sigma Aldrich, Lyon, France) for 4 h. Cells were then lysed overnight at 37 °C with 100 μL of 10% SDS and 0.003% HCl. Optical density (OD) at 570 nm was measured using a spectrophotometer CLARIOstar® (BMG Labtech, Offenburg, Germany). Living cells were also counted with the trypan blue dye exclusion method. […] Data were collected from at least three independent experiments and the values reported are means ± standard errors of the mean (SEM).
In the case of `NC(=O)c1c(O)cc(O)c2c1oc1c(N)cccc12` [Compound 16, 6-Amino-1,3-dihydroxydibenzo[b,d]furan-4-carboxamide], the IC50 is reported as 10.1 ± 0.8 µM. `NC(=O)c1c(O)cc(O)c2c1oc1cc(O)ccc12` [Compound 44, 1,3,7-Trihydroxydibenzo[b,d]furan-4-carboxamide] gave an IC50 of 2.6 ± 0.4 µM.

The compounds below were run on K562 cells (assay: MTT cell proliferation assay). Settings: Homo sapiens, 48 h, mean ± SEM.
Format: cell-based
Description: as §5, §6, §7, §8
`NC(=O)c1c(O)cc(O)c2c1oc1c(N)cccc12` [Compound 16, 6-Amino-1,3-dihydroxydibenzo[b,d]furan-4-carboxamide] was tested, and the IC50 was > 100 µM. Work on `NC(=O)c1c(O)cc(O)c2c1oc1cc(O)ccc12` [Compound 44, 1,3,7-Trihydroxydibenzo[b,d]furan-4-carboxamide] yielded an IC50 of 75.7 ± 11.8 µM.

The compounds below were run on KU812 cells (assay: MTT cell proliferation assay). Settings: Homo sapiens, 48 h, mean ± SEM.
Format: cell-based
Description: as §5, §6, §7, §8
`NC(=O)c1c(O)cc(O)c2c1oc1c(N)cccc12` [Compound 16, 6-Amino-1,3-dihydroxydibenzo[b,d]furan-4-carboxamide] was tested, and the IC50 was > 100 µM. For `NC(=O)c1c(O)cc(O)c2c1oc1cc(O)ccc12` [Compound 44, 1,3,7-Trihydroxydibenzo[b,d]furan-4-carboxamide], the IC50 was 42.1 ± 1.3 µM.

The compounds below were run on HeLa cells (assay: MTT cytotoxicity assay). Settings: Homo sapiens, 72 h.
Format: cell-based
Description: as §5
(§9) The cancer cell lines MCF-7, HT-29, and HeLa were obtained from Cell Bank of Rio de Janeiro, Brazil, and were grown in RPMI-1640 medium and L929 cells were grown in Dulbecco’s Modified Eagle’s Medium (DMEM). Both media were supplemented with fetal bovine serum (FBS) (10% of the final concentration) followed by treatment with penicillin and streptomycin as antibiotics (1% of the final concentration). The crude was incubated in the presence of CO2 atmosphere (5%) for 24 h with the temperature monitored and maintained at 37 °C.
(§10) MCF-7, HT-29, HeLa, and L929 cells (3×10^5 cells/mL) were plated in 96-well plates and incubated in the presence of CO2 atmosphere (5%) for 24 h at 37 °C. […] Then, 25 μL of MTT (5 mg/mL in PBS) were added to each well and the plates were left for another 3 h in the incubator at 37 °C and at the end of this period, the supernatant was aspirated. To perform the reading, 100 μL of dimethylsulfoxide (DMSO) were added in each well for the dissolution of the formazan crystals. The amount of formazan was measured by reading the plate at 560 nm absorbance. […] Each sample was tested in triplicate in two independent experiments.
In the case of `NC(=O)c1c(O)cc(O)c2c1oc1c(N)cccc12` [Compound 16, 6-Amino-1,3-dihydroxydibenzo[b,d]furan-4-carboxamide], the IC50 is reported as 14.6 ± 7.2 µM. For `NC(=O)c1c(O)cc(O)c2c1oc1cc(O)ccc12` [Compound 44, 1,3,7-Trihydroxydibenzo[b,d]furan-4-carboxamide], the IC50 was 10.2 ± 1.2 µM.

Each compound was assayed on MCF-7 cells (assay: MTT cytotoxicity assay). Settings: Homo sapiens, MCF7, 72 h.
Format: cell-based
Description: as §5, §9, §10
For `NC(=O)c1c(O)cc(O)c2c1oc1c(N)cccc12` [Compound 16, 6-Amino-1,3-dihydroxydibenzo[b,d]furan-4-carboxamide], the IC50 was > 100 µM. In the case of `NC(=O)c1c(O)cc(O)c2c1oc1cc(O)ccc12` [Compound 44, 1,3,7-Trihydroxydibenzo[b,d]furan-4-carboxamide], the IC50 is reported as 52.5 ± 1.2 µM.

What follows are compounds tested on L929 cells (assay: MTT assay, in vitro toxicity on normal cells). Settings: 72 h, normal mouse fibroblasts.
Format: cell-based
Description: as §5, §9, §10
In the case of `NC(=O)c1c(O)cc(O)c2c1oc1c(N)cccc12` [Compound 16, 6-Amino-1,3-dihydroxydibenzo[b,d]furan-4-carboxamide], the IC50 is reported as > 100 µM. For `NC(=O)c1c(O)cc(O)c2c1oc1cc(O)ccc12` [Compound 44, 1,3,7-Trihydroxydibenzo[b,d]furan-4-carboxamide], the IC50 was 28.4 ± 1.1 µM.
